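1) Cells in 96-well plates. 2) Compound, 48 h, 5 concentrations. 3) Linear interpolation between surrounding doses. 4) Unreached endpoint = highest concentration. Here, GI50 denotes the concentration required for 50% inhibition of growth. At the TGI there is no net growth.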
Columns and labels:
Assay in all cases: NCI-60 cell line screen, 48 h
[1] = tested on: HT29 colon
[2] = tested on: ACHN renal
[3] = tested on: NCI/ADR-RES ovarian
[4] = tested on: PC-3 prostate
[5] = tested on: SNB-19 CNS
[6] = tested on: RPMI-8226 leukemia
[7] = tested on: SF-268 CNS
[8] = tested on: HOP-62 NSCLC
[9] = tested on: U251 CNS
[10] = tested on: HL-60(TB) leukemia
[11] = tested on: M14 melanoma
[12] = tested on: NCI-H460 lung
[13] = tested on: HCT-15 colon
[14] = tested on: EKVX NSCLC
[15] = tested on: A549 NSCLC
[16] = tested on: SF-295 CNS
[17] = tested on: OVCAR-8 ovarian
[18] = tested on: SNB-75 CNS
[19] = tested on: HCT-116 colon
[20] = tested on: T-47D breast
[21] = tested on: SF-539 CNS
[22] = tested on: LOX IMVI melanoma
[23] = tested on: UACC-257 melanoma
[24] = tested on: IGROV1 ovarian
[25] = tested on: MDA-MB-435
[26] = tested on: HCC-2998 colon
[27] = tested on: CAKI-1 renal
[28] = tested on: MOLT-4 leukemia
[29] = tested on: SK-OV-3 ovarian
[30] = tested on: NCI-H522 lung
[31] = tested on: HOP-92 NSCLC
[32] = tested on: SN12C renal
[33] = tested on: 786-0 renal
[34] = tested on: UACC-62 melanoma
[35] = tested on: KM12 colon
[36] = tested on: OVCAR-5 ovarian
[37] = tested on: NCI-H226 lung
[38] = tested on: CCRF-CEM leukemia
[39] = tested on: SK-MEL-28 melanoma
[40] = tested on: BT-549 breast
[41] = tested on: SK-MEL-2 melanoma
[42] = tested on: RXF 393 renal
[43] = tested on: MDA-MB-231 breast
[44] = tested on: COLO 205 colon
[45] = tested on: SK-MEL-5 melanoma
[46] = tested on: DU-145 prostate
[47] = tested on: OVCAR-3 ovarian
[48] = tested on: OVCAR-4 ovarian
[49] = tested on: UO-31 renal
[50] = tested on: MALME-3M melanoma
[51] = tested on: SW-620 colon
[52] = tested on: NCI-H23 lung
[53] = tested on: SR leukemia
[54] = tested on: MCF7 breast
[55] = tested on: TK-10 renal
[56] = tested on: A498 renal
[57] = tested on: K-562 leukemia
[58] = tested on: HS 578T breast

CCCCC/C=C\C/C=C/CCCCCCCCNC(=O)Nc1ccc([N+](=O)[O-])cc1 was tested, and the GI50 [1] was 25.1 µM, the TGI [1] was over 100 µM and the GI50 [2] was 6.8 µM. It also gave a TGI [2] of over 100 µM, a GI50 [3] of 7.8 µM and a TGI [3] of over 100 µM. For the same compound, the GI50 [4] was 4.45 µM, the TGI [4] was over 100 µM and the GI50 [5] was 9.07 µM. The TGI [5] was over 100 µM, the GI50 [6] was 4.54 µM and the TGI [6] was 39.5 µM. It also gave a GI50 [7] of 38 µM, a TGI [7] of over 100 µM and a GI50 [8] of 40.8 µM. For the same compound, the TGI [8] was over 100 µM, the GI50 [9] was 6.05 µM and the TGI [9] was over 100 µM. It also gave a GI50 [10] of 19.9 µM, a TGI [10] of 47.5 µM and a GI50 [11] of 6.9 µM. For the same compound, the TGI [11] was 77.5 µM, the GI50 [12] was 21.9 µM and the TGI [12] was over 100 µM. The GI50 [13] was 8.81 µM, the TGI [13] was over 100 µM and the GI50 [14] was 23.8 µM. The TGI [14] was over 100 µM, the GI50 [15] was 38.2 µM and the TGI [15] was over 100 µM. For the same compound, the GI50 [16] was 4.96 µM, the TGI [16] was over 100 µM and the GI50 [17] was 8.82 µM. It also gave a TGI [17] of over 100 µM, a GI50 [18] of 22.9 µM and a TGI [18] of over 100 µM. The GI50 [19] was 4.17 µM, the TGI [19] was 35.6 µM and the GI50 [20] was 22.7 µM. For the same compound, the TGI [20] was over 100 µM, the GI50 [21] was 41.4 µM and the TGI [21] was over 100 µM. It also gave a GI50 [22] of 5.75 µM, a TGI [22] of over 100 µM and a GI50 [23] of 40.7 µM. For the same compound, the TGI [23] was over 100 µM, the GI50 [24] was 26.4 µM and the TGI [24] was over 100 µM. For the same compound, the GI50 [25] was 8.21 µM, the TGI [25] was over 100 µM and the GI50 [26] was 15.7 µM. The TGI [26] was over 100 µM, the GI50 [27] was 5.9 µM and the TGI [27] was over 100 µM. The GI50 [28] was 5.68 µM, the TGI [28] was 41.4 µM and the GI50 [29] was 40.7 µM. The TGI [29] was over 100 µM, the GI50 [30] was 11.5 µM and the TGI [30] was over 100 µM. The GI50 [31] was 4.27 µM, the TGI [31] was 35.4 µM and the GI50 [32] was 8.12 µM. For the same compound, the TGI [32] was over 100 µM, the GI50 [33] was 29.5 µM and the TGI [33] was over 100 µM. It also gave a GI50 [34] of 2.9 µM, a TGI [34] of over 100 µM and a GI50 [35] of 6.96 µM. It also gave a TGI [35] of over 100 µM, a GI50 [36] of 30.8 µM and a TGI [36] of over 100 µM. For the same compound, the GI50 [37] was 14.8 µM, the TGI [37] was over 100 µM and the GI50 [38] was 4.59 µM. It also gave a TGI [38] of over 100 µM, a GI50 [39] of 32.7 µM and a TGI [39] of over 100 µM. It also gave a GI50 [40] of 28.2 µM, a TGI [40] of 65.3 µM and a GI50 [41] of 32.3 µM. For the same compound, the TGI [41] was over 100 µM, the GI50 [42] was 24.1 µM and the TGI [42] was 73.8 µM. It also gave a GI50 [43] of 13.9 µM, a TGI [43] of over 100 µM and a GI50 [44] of 15 µM. It also gave a TGI [44] of 28.9 µM, a GI50 [45] of 14.8 µM and a TGI [45] of 32.4 µM. It also gave a GI50 [46] of 40.1 µM, a TGI [46] of over 100 µM and a GI50 [47] of 6.74 µM. For the same compound, the TGI [47] was over 100 µM, the GI50 [48] was 13.5 µM and the TGI [48] was over 100 µM. The GI50 [49] was 24.3 µM, the TGI [49] was over 100 µM and the GI50 [50] was 25.2 µM. For the same compound, the TGI [50] was 84.4 µM, the GI50 [51] was 5.51 µM and the TGI [51] was over 100 µM. It also gave a GI50 [52] of 5.19 µM, a TGI [52] of 72 µM and a GI50 [53] of 10.8 µM. It also gave a TGI [53] of 37.6 µM, a GI50 [54] of 23.7 µM and a TGI [54] of over 100 µM. The GI50 [55] was over 100 µM and the TGI [55] was over 100 µM.

O=C1c2ccccc2CCC1(Br)Br gave a GI50 [1] of 2.28 µM, a TGI [1] of 4.43 µM and a GI50 [2] of 1.21 µM. For the same compound, the TGI [2] was 2.55 µM, the GI50 [3] was 3.4 µM and the TGI [3] was 17.3 µM. The GI50 [4] was 4.14 µM, the TGI [4] was 16.9 µM and the GI50 [5] was 10.4 µM. For the same compound, the TGI [5] was 23.2 µM, the GI50 [6] was 1.99 µM and the TGI [6] was 4.9 µM. The GI50 [7] was 4.1 µM, the TGI [7] was 14.1 µM and the GI50 [8] was 6.32 µM. It also gave a TGI [8] of 17.8 µM, a GI50 [9] of 5.67 µM and a TGI [9] of 15.9 µM. For the same compound, the GI50 [10] was 2.04 µM, the TGI [10] was 5.22 µM and the GI50 [11] was 2.08 µM. It also gave a TGI [11] of 5.12 µM, a GI50 [12] of 5.28 µM and a TGI [12] of 18.7 µM. It also gave a GI50 [13] of 0.743 µM, a TGI [13] of 2.24 µM and a GI50 [56] of 7.69 µM. The TGI [56] was 20.9 µM, the GI50 [15] was 6.84 µM and the TGI [15] was 19.1 µM. For the same compound, the GI50 [16] was 14.6 µM, the TGI [16] was 28 µM and the GI50 [17] was 2.36 µM. The TGI [17] was 6.04 µM, the GI50 [18] was 3.23 µM and the TGI [18] was 16.2 µM. It also gave a GI50 [19] of 0.888 µM, a TGI [19] of 2.23 µM and a GI50 [21] of 1.88 µM. The TGI [21] was 3.74 µM, the GI50 [22] was 1.48 µM and the TGI [22] was 2.9 µM. The GI50 [23] was 1.88 µM, the TGI [23] was 4.98 µM and the GI50 [24] was 2.59 µM. The TGI [24] was 5.98 µM, the GI50 [25] was 2.34 µM and the TGI [25] was 6.53 µM. It also gave a GI50 [26] of 3.88 µM, a TGI [26] of 9.19 µM and a GI50 [27] of 1.65 µM. It also gave a TGI [27] of 3.04 µM, a GI50 [28] of 0.631 µM and a TGI [28] of 3.94 µM. The GI50 [29] was 6.12 µM, the TGI [29] was 18.2 µM and the GI50 [30] was 0.293 µM. It also gave a TGI [30] of 0.793 µM, a GI50 [31] of 1.27 µM and a TGI [31] of 2.58 µM. For the same compound, the GI50 [32] was 2.18 µM, the TGI [32] was 5.37 µM and the GI50 [33] was 2.21 µM. For the same compound, the TGI [33] was 4.55 µM, the GI50 [34] was 1.96 µM and the TGI [34] was 4.54 µM. For the same compound, the GI50 [35] was 4.34 µM, the TGI [35] was 15 µM and the GI50 [36] was 1.76 µM. The TGI [36] was 3.25 µM, the GI50 [37] was 1.98 µM and the TGI [37] was 4.56 µM. For the same compound, the GI50 [38] was 0.365 µM, the TGI [38] was 2.01 µM and the GI50 [39] was 2.08 µM. For the same compound, the TGI [39] was 4.65 µM, the GI50 [40] was 2 µM and the TGI [40] was 4.96 µM. It also gave a GI50 [41] of 3.13 µM, a TGI [41] of 11.3 µM and a GI50 [42] of 1.68 µM. The TGI [42] was 3.32 µM, the GI50 [57] was 0.357 µM and the TGI [57] was 2.02 µM. It also gave a GI50 [43] of 1.97 µM, a TGI [43] of 4.72 µM and a GI50 [44] of 0.671 µM. The TGI [44] was 2.06 µM, the GI50 [45] was 2.32 µM and the TGI [45] was 5.87 µM. For the same compound, the GI50 [46] was 3.73 µM, the TGI [46] was 12 µM and the GI50 [58] was 4.08 µM. It also gave a TGI [58] of over 26.9 µM, a GI50 [47] of 1.75 µM and a TGI [47] of 3.17 µM. The GI50 [48] was 1.48 µM, the TGI [48] was 2.97 µM and the GI50 [49] was 1.27 µM. For the same compound, the TGI [49] was 2.6 µM, the GI50 [50] was 1.06 µM and the TGI [50] was 2.75 µM. The GI50 [51] was 0.384 µM, the TGI [51] was 1.53 µM and the GI50 [52] was 1.99 µM. The TGI [52] was 4.9 µM, the GI50 [53] was 0.67 µM and the TGI [53] was 3.9 µM. The GI50 [54] was 1.56 µM, the TGI [54] was 3.89 µM and the GI50 [55] was 1.5 µM. The TGI [55] was 2.88 µM.

Source: PubChem BioAssay (NCI)
